Experimental data published in publication PMC12528448, “Resistance to CDK7 inhibitors directed by acquired mutation of a conserved residue in cancer cells” (The EMBO Journal, 2025).
Several values for one entry are separate records, joined by “and”; a condition that tells them apart may be missing. Equal entries are not always repeated. Entries after “also recorded” stand apart in the source; their conditions may differ.

Columns and labels:
[1] = system: 22Rv1 CDK7-D97N CL3 cells; assay: Growth assay (SRB), 22Rv1 homozygous CDK7-D97N clone CL3; assay type: cell-based; details: Homo sapiens; 22Rv1 CDK7-D97N complete knock-in clone CL3; Figure R1; read-out: IC50, growth inhibition
Procedure: (§1) To determine the IC50 of drug treatments on growth, cells were seeded in 96-well culture plates. Two days after seeding, the cells were treated with increasing concentrations of drugs and incubated for 4 days. Cell number was determined using the SRB assay (Skehan et al, [1990]), and IC50 values were calculated using non-linear regression curve fitting in GraphPad Prism v10. For all other growth experiments, cells were seeded into 96-well plates, and appropriate drugs were added 2 days after seeding. Cells were then incubated in an IncuCyte Zoom live-cell imager, with cell confluency measured every 6 h. Cell doubling times were determined by non-linear curve fitting (exponential growth equation) in GraphPad Prism v10.
Alt-R^TM S.p. Cas9 nuclease V3, Alt-R CRISPR-Cas9 crRNA, TracrRNA and the donor templates were obtained from Integrated DNA Technologies. […] Cells were treated with 0.7 µM of Alt-R HDR Enhancer V2 to improve HRD efficiency. Sequences of the CRISPRs in the crRNA and the donor templates are shown in the Reagents and tools table. Donor templates were designed to include non-coding substitutions to aid genome DNA PCR for identifying knock-in events and to facilitate cloning; these substitutions are noted in the Reagents and tools table.

[2] = system: PolII CTD Ser5 and CDK2 Thr160 phosphorylation in 22Rv1 cells; assay: Immunoblotting of CDK7 targets, 22Rv1; assay type: cell-based, human
Procedure: (§2) Whole-cell lysates were prepared in RIPA buffer (Sigma-Aldrich), supplemented with protease and phosphatase inhibitor cocktails (Roche). Protein sample concentrations were determined using the Pierce BCA Protein Assay kit (ThermoFisher Scientific). […] PolII CTD phosphorylation antibodies (P-Ser2 (ab5095) and P-Ser5 (ab5131), used at 1:10,000 dilution), as well as total PolII (ab817; 1:2000 dilution) and β-actin (ab6276; 1:100,000 dilution) were purchased from Abcam.

[3] = system: PolII CTD Ser5 and CDK2 Thr160 phosphorylation in 22Rv1-SamR cells; assay: Immunoblotting of CDK7 targets, 22Rv1-SamR; assay type: cell-based, human; details: for Relative Density P-Ser5 / Relative Density ß-actin: SamR
Procedure: as §2

[4] = system: PolII and CDK2 phosphorylation in MCF7-CDK7-D97N cells; assay: Immunoblotting of CDK7 targets, MCF7-CDK7-D97N; assay type: cell-based, human; details: 24 h, immunoblot
Procedure: as §2

MCF7 cells = assay: IncuCyte confluency growth, MCF7; assay type: cell-based, human
Procedure: as §1

[5] = system: MCF7-CDK4^D99N (CL1) cells; assay: IncuCyte confluency growth, homozygous CDK4 D99N clone CL1; assay type: cell-based, human
Procedure: as §1

[6] = 22Rv1, 5nM SY1365, Vehicle = 1.00
[7] = 22Rv1, 50nM SY1365, Vehicle = 1.00
[8] = homozygous mutant clone, 1 µM Palbociclib

SMILES: CC(C)c1cnn2c(NCc3ccccc3)cc(NC[C@H]3CCNC[C@@H]3O)nc12 [Samuraciclib]
- IC50 [1]: 1420 nM

SMILES: CN(C)C/C=C/C(=O)Nc1ccc(C(=O)N[C@@]2(C)CCC[C@@H](Nc3ncc(Cl)c(-c4c[nH]c5ccccc45)n3)C2)nc1 [SY-1365]
- Relative Density P-Ser2 [2, 6]: 1.04 and 0.55 and 0.68
- Relative Density P-Ser5 [2, 6]: 0.62 and 1.03
- Relative Density ß-actin [2, 6]: 0.99 and 1.00
- Relative Density P-Ser5 [2, 7]: 0.61 and 0.64 and 1.06
- Relative Density ß-actin [2, 7]: 1.04 and 0.98 and 1.03
- CDK2 phosphorylation at Thr160 ([3]; 22Rv1-SamR, 24 h, immunoblot): significant reduction
- PolII CTD Ser5 phosphorylation ([3]; 22Rv1-SamR, 24 h, immunoblot): significantly lower; also recorded: significant reduction
- Relative Density P-Ser5 ([3]; 5nM SY1365, Vehicle = 1.00): 0.61 and 0.57 and 0.37
- Relative Density ß-actin ([3]; 5nM SY1365, Vehicle = 1.00): 1.11 and 1.02 and 0.97
- Relative Density P-Ser5 ([3]; 50nM SY1365, Vehicle = 1.00): 0.54 and 0.49 and 0.41
- Relative Density ß-actin ([3]; 50nM SY1365, Vehicle = 1.00): 1.10 and 1.08 and 1.01
- Inhibition of PolII and CDK2 phosphorylation [4]: maintained

SMILES: CC(=O)c1c(C)c2cnc(Nc3ccc(N4CCNCC4)cn3)nc2n(C2CCCC2)c1=O [Palbociclib]
- % Conluency (MCF7 cells; MCF7, 50nM Palbociclib, 48 Hours): 21.09% and 17.14% and 31.73%
- % Conluency (MCF7 cells; MCF7, 50nM Palbociclib, 60 Hours): 26.85% and 21.06% and 38.57%
- % Conluency (MCF7 cells; MCF7, 50nM Palbociclib, 72 Hours): 33.08% and 25.69% and 49.56%
- % Conluency (MCF7 cells; MCF7, 50nM Palbociclib, 84 Hours): 42.76% and 32.56% and 62.06%
- % Conluency (MCF7 cells; MCF7, 50nM Palbociclib, 96 Hours): 53.46% and 40.59% and 75.59%
- % Conluency (MCF7 cells; MCF7, 50nM Palbociclib, 120 Hours): 76.28% and 61.62% and 89.48%
- % Conluency (MCF7 cells; MCF7, 50nM Palbociclib, 132 Hours): 87.22% and 71.34% and 95.67%
- % Conluency (MCF7 cells; MCF7, 50nM Palbociclib, 144 Hours): 95.25% and 77.28% and 98.12%
- % Conluency (MCF7 cells; MCF7, 100nM Palbociclib, 48 Hours): 20.67% and 15.77% and 27.22%
- % Conluency (MCF7 cells; MCF7, 100nM Palbociclib, 60 Hours): 25.56% and 18.66% and 32.25%
- % Conluency (MCF7 cells; MCF7, 100nM Palbociclib, 72 Hours): 32.06% and 22.38% and 39.17%
- % Conluency (MCF7 cells; MCF7, 100nM Palbociclib, 84 Hours): 40.13% and 28.06% and 49.01%
- % Conluency (MCF7 cells; MCF7, 100nM Palbociclib, 96 Hours): 50.09% and 33.82% and 60.83%
- % Conluency (MCF7 cells; MCF7, 100nM Palbociclib, 120 Hours): 70.64% and 49.63% and 77.85%
- % Conluency (MCF7 cells; MCF7, 100nM Palbociclib, 132 Hours): 77.85% and 58.56% and 85.38%
- % Conluency (MCF7 cells; MCF7, 100nM Palbociclib, 144 Hours): 87.15%
- % Conluency (MCF7 cells; MCF7, 500nM Palbociclib, 48 Hours): 17.33% and 13.43% and 25.36%
- % Conluency (MCF7 cells; MCF7, 500nM Palbociclib, 60 Hours): 19.30% and 15.00% and 28.50%
- % Conluency (MCF7 cells; MCF7, 500nM Palbociclib, 72 Hours): 22.35% and 16.89% and 33.09%
- % Conluency (MCF7 cells; MCF7, 500nM Palbociclib, 120 Hours): 35.55% and 26.80% and 51.35%
- % Conluency (MCF7 cells; MCF7, 500nM Palbociclib, 132 Hours): 36.87% and 29.33% and 55.68%
- % Conluency (MCF7 cells; MCF7, 500nM Palbociclib, 144 Hours): 41.22% and 32.10% and 58.75%
- % Conluency (MCF7 cells; MCF7, 1000nM Palbociclib, 48 Hours): 16.59% and 13.44% and 21.86%
- % Conluency (MCF7 cells; MCF7, 1000nM Palbociclib, 60 Hours): 18.56% and 14.52% and 24.10%
- % Conluency (MCF7 cells; MCF7, 1000nM Palbociclib, 72 Hours): 20.73% and 16.23% and 26.86%
- % Conluency (MCF7 cells; MCF7, 1000nM Palbociclib, 84 Hours): 23.01% and 18.11% and 30.06%
- % Conluency (MCF7 cells; MCF7, 1000nM Palbociclib, 96 Hours): 25.25% and 20.25% and 34.64%
- % Conluency (MCF7 cells; MCF7, 1000nM Palbociclib, 120 Hours): 30.07% and 24.29% and 38.56%
- % Conluency (MCF7 cells; MCF7, 1000nM Palbociclib, 132 Hours): 30.94% and 26.42% and 40.12%
- % Conluency (MCF7 cells; MCF7, 1000nM Palbociclib, 144 Hours): 33.62% and 26.11% and 42.54%
- Doubling time (MCF7 cells; MCF7, 1 µM Palbociclib): 138.9 (95% CI = 96.8–238.0) h
- Increase of doubling time vs vehicle (MCF7 cells; MCF7, 1 µM Palbociclib): fivefold
- Confluency (MCF7 cells; MCF7, 1 µM Palbociclib, at 250 h): 50%
- Growth inhibition (MCF7 cells; MCF7, IncuCyte): growth inhibited by Palbociclib in a dose-dependent manner
- % Confluency ([5]; MCF7 CDK4 D99N/D99N CL1, 50nM Palbociclib, 0 Hours): 4.47% and 7.41% and 8.54%
- % Confluency ([5]; MCF7 CDK4 D99N/D99N CL1, 50nM Palbociclib, 12 Hours): 6.57% and 10.81% and 12.65%
- % Confluency ([5]; MCF7 CDK4 D99N/D99N CL1, 50nM Palbociclib, 24 Hours): 7.94% and 14.04% and 16.28%
- % Confluency ([5]; MCF7 CDK4 D99N/D99N CL1, 50nM Palbociclib, 36 Hours): 9.96% and 16.26% and 19.65%
- % Confluency ([5]; MCF7 CDK4 D99N/D99N CL1, 50nM Palbociclib, 60 Hours): 16.05% and 25.67% and 31.53%
- % Confluency ([5]; MCF7 CDK4 D99N/D99N CL1, 50nM Palbociclib, 72 Hours): 20.59% and 33.83% and 40.66%
- % Confluency ([5]; MCF7 CDK4 D99N/D99N CL1, 100nM Palbociclib, 0 Hours): 5.11% and 7.96% and 8.92%
- % Confluency ([5]; MCF7 CDK4 D99N/D99N CL1, 100nM Palbociclib, 12 Hours): 7.75% and 11.79% and 13.54%
- % Confluency ([5]; MCF7 CDK4 D99N/D99N CL1, 100nM Palbociclib, 24 Hours): 9.54% and 15.28% and 17.18%
- % Confluency ([5]; MCF7 CDK4 D99N/D99N CL1, 100nM Palbociclib, 36 Hours): 11.96% and 17.72% and 19.72%
- % Confluency ([5]; MCF7 CDK4 D99N/D99N CL1, 100nM Palbociclib, 48 Hours): 15.88% and 21.63% and 24.14%
- % Confluency ([5]; MCF7 CDK4 D99N/D99N CL1, 100nM Palbociclib, 60 Hours): 19.72% and 27.06% and 29.56%
- % Confluency ([5]; MCF7 CDK4 D99N/D99N CL1, 100nM Palbociclib, 72 Hours): 25.72% and 33.76% and 37.42%
- % Confluency ([5]; MCF7 CDK4 D99N/D99N CL1, 100nM Palbociclib, 84 Hours): 33.55% and 43.80% and 49.43%
- % Confluency ([5]; MCF7 CDK4 D99N/D99N CL1, 100nM Palbociclib, 96 Hours): 44.26% and 56.08% and 62.73%
- % Confluency ([5]; MCF7 CDK4 D99N/D99N CL1, 500nM Palbociclib, 0 Hours): 4.28% and 7.96% and 8.62%
- % Confluency ([5]; MCF7 CDK4 D99N/D99N CL1, 500nM Palbociclib, 12 Hours): 6.49% and 11.80% and 13.50%
- % Confluency ([5]; MCF7 CDK4 D99N/D99N CL1, 500nM Palbociclib, 24 Hours): 8.63% and 14.98% and 17.24%
- % Confluency ([5]; MCF7 CDK4 D99N/D99N CL1, 500nM Palbociclib, 36 Hours): 10.70% and 16.67% and 18.25%
- % Confluency ([5]; MCF7 CDK4 D99N/D99N CL1, 500nM Palbociclib, 48 Hours): 13.35% and 19.15% and 19.83%
- % Confluency ([5]; MCF7 CDK4 D99N/D99N CL1, 500nM Palbociclib, 60 Hours): 17.13% and 22.40% and 23.57%
- % Confluency ([5]; MCF7 CDK4 D99N/D99N CL1, 500nM Palbociclib, 72 Hours): 21.34% and 27.28% and 27.86%
- % Confluency ([5]; MCF7 CDK4 D99N/D99N CL1, 500nM Palbociclib, 84 Hours): 27.05% and 33.32% and 34.40%
- % Confluency ([5]; MCF7 CDK4 D99N/D99N CL1, 500nM Palbociclib, 96 Hours): 34.72% and 41.63% and 42.47%
- % Confluency ([5]; MCF7 CDK4 D99N/D99N CL1, 500nM Palbociclib, […] Hours): 39.86%
- % Confluency ([5]; MCF7 CDK4 D99N/D99N CL1, 1000nM Palbociclib, 0 Hours): 4.23% and 6.28% and 8.65%
- % Confluency ([5]; MCF7 CDK4 D99N/D99N CL1, 1000nM Palbociclib, 12 Hours): 6.49% and 9.38% and 13.38%
- % Confluency ([5]; MCF7 CDK4 D99N/D99N CL1, 1000nM Palbociclib, 24 Hours): 8.61% and 12.05% and 16.81%
- % Confluency ([5]; MCF7 CDK4 D99N/D99N CL1, 1000nM Palbociclib, 36 Hours): 10.75% and 13.98% and 18.02%
- % Confluency ([5]; MCF7 CDK4 D99N/D99N CL1, 1000nM Palbociclib, 48 Hours): 13.71% and 15.18% and 19.26%
- % Confluency ([5]; MCF7 CDK4 D99N/D99N CL1, 1000nM Palbociclib, 60 Hours): 17.11% and 17.23% and 21.83%
- % Confluency ([5]; MCF7 CDK4 D99N/D99N CL1, 1000nM Palbociclib, 72 Hours): 21.46% and 20.52% and 24.80%
- % Confluency ([5]; MCF7 CDK4 D99N/D99N CL1, 1000nM Palbociclib, 84 Hours): 26.42% and 23.91% and 29.84%
- % Confluency ([5]; MCF7 CDK4 D99N/D99N CL1, 1000nM Palbociclib, 96 Hours): 33.28% and 29.04% and 35.27%
- Sensitivity of growth ([5]; homozygous mutant clone vs MCF7): substantially less sensitive
- Doubling time [5, 8]: 54.6 (95% CI = 48.4–62.1) h
- Increase of doubling time vs vehicle [5, 8]: twofold
